Measurements: patent US9302999B2, “Substituted triazoles as herbicides” (E. I. DU PONT DE NEMOURS AND COMPANY, priority 2012, dated 2016)

Assays:
Type in all cases: in vivo
[1] = test system: sedge, umbrella (small-flower umbrella sedge Cyperus difformis); assay: Test B flooded paddy: sedge, umbrella; conditions: Flood; 250 g ai/ha; applied to paddy water at 2-leaf stage; visually evaluated after 13 to 15 days
Outline: (§1)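 Greenhouse assay lasting 13 to 15 days. Treatment was into water flooding pots 3 cm deep, at the 2-leaf stage, with that level sustained afterwards. Scores compare treated with control plants visually, 100 denoting complete control and 0 no effect; a dash marks no test result.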

[2] = test system: foxtail, giant (giant foxtail, Setaria faberii); assay: Test A pre-/postemergence: foxtail, giant
Outline: (§2)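 Plants in loam–sand blend were treated with test chemicals in non-phytotoxic solvent with surfactant, either as preemergence directed soil spray or postemergence at 2–10 cm, one- to two-leaf stage. After about ten days in greenhouse, injury was rated visually against untreated controls on a 0–100 scale (100 = complete control).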

[3] = test system: wheat (Triticum aestivum); assay: Test A pre-/postemergence: wheat; conditions: for Wheat plant response rating: visual rating on 0 to 100 scale (0 no effect, 100 complete control), approximately ten days
Outline: as §2

[4] = test system: morningglory (Ipomoea spp.); assay: Test A pre-/postemergence: morningglory; conditions: for Morningglory plant response rating: visual rating on 0 to 100 scale (0 no effect, 100 complete control), approximately ten days
Outline: as §2

[5] = test system: barnyardgrass (Echinochloa crus-galli); assay: Test A pre-/postemergence: barnyardgrass
Outline: as §2

[6] = test system: barnyardgrass (Echinochloa crus-galli); assay: Test B flooded paddy: barnyardgrass; conditions: Flood; 250 g ai/ha; applied to paddy water at 2-leaf stage; visually evaluated after 13 to 15 days
Outline: as §1

rice (Oryza sativa) = assay: Test B flooded paddy: rice; conditions: Flood; 250 g ai/ha; applied to paddy water at 2-leaf stage; visually evaluated after 13 to 15 days
Outline: as §1

[7] = test system: ducksalad (Heteranthera limosa); assay: Test B flooded paddy: ducksalad; conditions: Flood; 250 g ai/ha; applied to paddy water at 2-leaf stage; visually evaluated after 13 to 15 days
Outline: as §1

[8] = test system: pigweed (Amaranthus retroflexus); assay: Test A pre-/postemergence: pigweed; conditions: for Pigweed plant response rating: visual rating on 0 to 100 scale (0 no effect, 100 complete control), approximately ten days
Outline: as §2

corn (Zea mays) = assay: Test A pre-/postemergence: corn
Outline: as §2

[9] = test system: velvetleaf (Abutilon theophrasti); assay: Test A pre-/postemergence: velvetleaf; conditions: for Velvetleaf plant response rating: visual rating on 0 to 100 scale (0 no effect, 100 complete control), approximately ten days
Outline: as §2

[10] = test system: crabgrass, large (large crabgrass, Digitaria sanguinalis); assay: Test A pre-/postemergence: crabgrass, large
Outline: as §2

[11] = Postemergence, 125 g ai/ha, 0 to 100 scale, 0 is no effect, 100 is complete control
[12] = Postemergence, 500 g ai/ha, visual rating on 0 to 100 scale (0 no effect, 100 complete control), approximately ten days
[13] = Preemergence, 125 g ai/ha, 0 to 100 scale where 0 is no effect and 100 is complete control
[14] = Preemergence, 500 g ai/ha, 0 to 100 scale (0 no effect, 100 complete control)

| SMILES | Plant response rating, Sedge, Umbrella (0 to 100 scale, 0 is no effect, 100 is complete control) [1] | Foxtail, Giant plant response rating [2, 12] | Plant response rating, Foxtail, Giant [2, 13] | Plant response rating, Foxtail, Giant [2, 14] | Plant response rating, Wheat [3, 11] | Wheat plant response rating ([3]; Postemergence, 500 g ai/ha) | Plant response rating, Wheat [3, 13] | Plant response rating, Wheat [3, 14] | Plant response rating, Morningglory [4, 11] | Morningglory plant response rating ([4]; Postemergence, 500 g ai/ha) | Plant response rating, Morningglory [4, 13] | Plant response rating, Morningglory [4, 14] | Barnyardgrass plant response rating [5, 12] | Plant response rating, Barnyardgrass [5, 13] | Plant response rating, Barnyardgrass [5, 14] | Plant response rating, Barnyardgrass (0 to 100 scale, 0 is no effect, 100 is complete control) [6] | Plant response rating, Rice (0 to 100 scale, 0 is no effect, 100 is complete control) (rice (Oryza sativa)) | Plant response rating, Ducksalad (0 to 100 scale, 0 is no effect, 100 is complete control) [7] | Plant response rating, Pigweed [8, 11] | Pigweed plant response rating ([8]; Postemergence, 500 g ai/ha) | other results |
| --- | --- | --- | --- | --- | --- | --- | --- | --- | --- | --- | --- | --- | --- | --- | --- | --- | --- | --- | --- | --- | --- |
| CCc1nn(-c2ccc(F)cc2)nc1Cc1cccc(C(F)(F)F)c1 [Compound 144] | 80 | 90 | 50 | 100 | 0 | 20 | 0 | 0 | 20 | 90 | 0 | 0 | 30 | 0 | 30 | 30 | 20 | 40 | 100 | 100 | Foxtail, Giant plant response rating [2, 11]: 30; Barnyardgrass plant response rating [5, 11]: 10; Plant response rating, Pigweed [8, 13]: 50; Plant response rating, Pigweed [8, 14]: 100; Corn plant response rating (corn (Zea mays); [11]): 10; Corn plant response rating (corn (Zea mays); [12]): 30; Plant response rating, Corn (corn (Zea mays); [13]): 0; Plant response rating, Corn (corn (Zea mays); [14]): 0; Plant response rating, Velvetleaf [9, 11]: 40; Velvetleaf plant response rating ([9]; Postemergence, 500 g ai/ha): 50; Plant response rating, Velvetleaf [9, 13]: 0; Plant response rating, Velvetleaf [9, 14]: 0; Crabgrass, Large plant response rating [10, 11]: 50; Crabgrass, Large plant response rating [10, 12]: 90; Plant response rating, Crabgrass, Large [10, 13]: 50; Plant response rating, Crabgrass, Large [10, 14]: 100 |
| CCCc1nn(-c2ccc(F)cc2)nc1Cc1cccc(C(F)(F)F)c1 [Compound 149] | 60 | 90 | 90 | 100 | 20 | 30 | 0 | 50 | 90 | 100 | 10 | 30 | 80 | 60 | 90 | 40 | 30 | 60 | 100 | 100 | Plant response rating, Foxtail, Giant [2, 11]: 80; Plant response rating, Barnyardgrass [5, 11]: 30; Plant response rating, Pigweed [8, 13]: 90; Plant response rating, Pigweed [8, 14]: 100; Plant response rating, Corn (corn (Zea mays); [11]): 30; Corn plant response rating (corn (Zea mays); [12]): 40; Plant response rating, Corn (corn (Zea mays); [13]): 10; Plant response rating, Corn (corn (Zea mays); [14]): 20; Plant response rating, Velvetleaf [9, 11]: 60; Velvetleaf plant response rating ([9]; Postemergence, 500 g ai/ha): 100; Plant response rating, Velvetleaf [9, 13]: 20; Plant response rating, Velvetleaf [9, 14]: 50; Plant response rating, Crabgrass, Large [10, 11]: 80; Crabgrass, Large plant response rating [10, 12]: 90; Plant response rating, Crabgrass, Large [10, 13]: 90; Plant response rating, Crabgrass, Large [10, 14]: 100 |
